Source: patent publication US20050203122A1, “Benzenesulfonic acid salts of clopidogrel, methods for preparing same, and pharmaceutical formulations thereof” (Helm AG, priority 2003, published 2005)
Counter-ions that a name gives are not always drawn. Like-named read-outs stand apart in the source and are kept apart here.

Assays:
[1] = neutral, water, 5 h
[2] = acidic, 1N HCl, 5 h
[3] = for total impurities relative to the clopidogrel base: alkaline, 1N NaOH, 5 h
Method: 50 mg of the respective salts were separately weighed into volumetric flasks (100 ml), and 2 ml of 1N NaOH were added. The flasks were then stored either at room temperature for 5 h or at 80° C. for 5 h. After the end of the particular experiment and, where appropriate, cooling to room temperature, 2 ml of 1N HCl were added to each flask, and the volume was made up to 100 ml with the mobile phase.

[4] = solid stored at 80° C. for 20 h
Method: 50 mg of the respective salts were weighed separately into volumetric flasks (100 ml) and stored at 80° C. for 20 h.

[5] = oxidizing, 5 h
[6] = Decrease in active ingredient content of adsorbates on storage at 40° or 60° C. and 75% relative humidity for 15 days; type: physicochemical
From the text: The results are summarized in Table 5 below (content after 15 days (initial level standardized at 100%)).

[7] = 40° and 60° C., 75% relative humidity, 15 days
[8] = overall, in particular at room temperature
[9] = room temperature, hydrochloride

Row | Molecule | total impurities relative to the clopidogrel base ([1]; 80° C.) [%] | total impurities relative to the clopidogrel base ([1]; room temperature) [%] | total impurities relative to the clopidogrel base ([2]; 80° C.) [%] | total impurities relative to the clopidogrel base ([2]; room temperature) [%] | total impurities relative to the clopidogrel base ([3]; 80° C.) [%] | total impurities relative to the clopidogrel base ([3]; room temperature) [%] | impurities by HPLC after heat [4] [%] | total impurities relative to the clopidogrel base ([5]; 3% H2O2, 80° C.) [%] | total impurities relative to the clopidogrel base ([5]; 3% H2O2, room temperature) [%] | also measured
1 | COC(=O)[C@H](c1ccccc1Cl)N1CCc2sccc2C1 [Clopidogrel Hydrochloride, clopidogrel hydrochloride, reference compound] | – | – | – | – | – | – | – | – | – | total impurities relative to the clopidogrel base ([1]; 80° C., hydrochloride): 4.33%; total impurities relative to the clopidogrel base [1, 9]: 1.84%; total impurities relative to the clopidogrel base ([2]; 80° C., hydrochloride): 3.31%; total impurities relative to the clopidogrel base [2, 9]: 1.86%; total impurities relative to the clopidogrel base ([3]; 80° C., hydrochloride): 72.89%; total impurities relative to the clopidogrel base [3, 9]: 1.86%; impurities by HPLC after heat ([4]; hydrochloride): 32.43%; total impurities relative to the clopidogrel base ([5]; 3% H2O2, 80° C., hydrochloride): 4.16%; total impurities relative to the clopidogrel base ([5]; 3% H2O2, room temperature, hydrochloride): 1.83%
2 | COC(=O)[C@H](c1ccccc1Cl)N1CCc2sccc2C1 [Clopidogrel Hydrogensulfate, clopidogrel hydrogensulfate, reference compound] | 1.63 | 0.40 | 2.96 | 0.32 | 59.48 | 0.32 | 0.31 | 3.50 | 0.33 | –
3 | Clopidogrel besylate [Pure (free) salt] | – | – | – | – | – | – | – | – | – | content after 15 days (initial level standardized at 100%) ([6]; 40° C.): 103.32%; content after 15 days (initial level standardized at 100%) ([6]; 60° C.): 66.48%
4 | clopidogrel benzenesulfonate [Clopidogrel Benzenesulfonate (Amorphous)] | 3.01 | 0.85 | 2.36 | 0.64 | 25.04 | 0.64 | 11.52 | 2.94 | 0.83 | stability compared with the hydrogensulfate and hydrochloride salts ([3]; alkaline conditions): considerably higher
5 | clopidogrel benzenesulfonate [Clopidogrel Benzenesulfonate (Crystalline)] | 4.18 | 0.19 | 2.76 | 0.14 | 28.05 | 0.14 | 4.52 | – | – | stability (decrease in content) compared with hydrogensulfate and hydrochloride [7]: best stability; stability compared with clopidogrel hydrogensulfate [8]: more stable
